Results reported in patent US6646137B1, “Non-peptide GnRH agents” (priority 1998, dated 2003).
Where two headings read alike, the source gives them in different places.

Target: T1, human GnRH receptor (Homo sapiens, UniProt P30968)
T1 construct: The cDNA for the human GnRH receptor is cloned into the plasmid expression vector, pcDNA 3; expressed in transfected cells; host or cells: HEK 293 cells, stably transfected (pcDNA 3); membrane preparation
T1 sequence (P30968 1-328): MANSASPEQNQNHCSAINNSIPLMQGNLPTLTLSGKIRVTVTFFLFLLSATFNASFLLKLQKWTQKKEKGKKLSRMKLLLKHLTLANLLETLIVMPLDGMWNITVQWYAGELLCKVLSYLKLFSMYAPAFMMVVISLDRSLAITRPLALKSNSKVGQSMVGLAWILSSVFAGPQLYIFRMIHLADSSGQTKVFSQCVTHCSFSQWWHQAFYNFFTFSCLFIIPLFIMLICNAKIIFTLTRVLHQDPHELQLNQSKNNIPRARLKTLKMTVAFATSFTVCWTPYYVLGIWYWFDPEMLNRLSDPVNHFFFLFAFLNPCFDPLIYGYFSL
Test: GnRH receptor competitive radioligand binding assay (125I-GnRH-A, HEK 293 cell membranes)
Settings: compound at 10 μM
Text: The cDNA for the human GnRH receptor is cloned into the plasmid expression vector, pcDNA 3 (In Vitrogen), and stably transfected in HEK 293 cells (a cell line developed by Dr. Stuart Sealfon, Mount Sinai Medical School, New York, N.Y.).
The human GnRH receptor (hGnRH) is cloned into pcDNA 3 (In Vitrogen), which provides high-level expression and a neomycin resistance marker. Lipofectamine (GIBCO BRL) is used to transfect HEK 293 cells with plasmid DNA. This method involves mixing the plasmid and reagent in serum-free medium, allowing DNA-liposome complexes to form, and overlaying cells with this solution. The HEK 293 cells are plated (seeded) on a 10-cm tissue culture dish at a density of 3×10^6 cells/dish the day before transfection. For each plate, 8 μg DNA plus 0.8 mL serum-free medium is mixed with 48 μL lipofectamine plus 0.8 mL serum-free medium, followed by incubation for 30 minutes at room temperature to allow DNA-liposome complexes to form. Serum-free medium is added to give a final volume of 6 mL/plate. The cells are rinsed twice with serum-free medium and overlayed with the DNA-liposome mixture. Five hours after transfection, an equal volume (6 mL) of medium containing 20% FBS (fetal bovine serum) is added. The cells are fed with fresh complete medium 18-24 hours after transfection. The cells are split 72 hours following transfection, at densities of 1:10 and 1:20. Stable tranformants are selected for by growth of the cells in antibiotic containing medium (G418, Sigma Chemical Company (also known as Geneticin)). Colonies are isolated and tested for receptor expression by radioligand binding and by measuring phosphoinositol turnover.
HEK 293 cells stably transfected with human GnRH receptors as described above are grown in MEM (minimal essential medium, available from Sigma Chemical Company) supplemented with 0.1% G418 (Sigma Chemical Company). Cells are homogenized in buffer A containing 50 mM Tris (pH 74.), 0.32M sucrose, 2 mM ethyleneglycol-bis(β-aminoethyl)-N,N,N′,N′-tetraacetic acid (EGTA), 1 mM phenylmethylsulfonyl fluoride (PMSF), 5 μg/mL aprotinen, 5 μg/mL Pepstatin A, and 1 μg/mL leupeptin. The homogenized cells are centrifuged at 4° C. at 20,000×g for 25 minutes, resuspended in buffer A, and recentrifuged at 4° C. at 20,000×g for an additional 25 minutes. Total membrane protein is determined with a BCA kit (Pierce, Rockford, Ill.). Membranes are stored at −70° C. at a final membrane protein concentration of 5 mg/mL.
The radioiodinated agonist analog of GnRH, [des-Gly^10, D-Ala^8]GnRH ethylamide (GnRH-A), is used as the labeled ligand. One μg of GnRH-A diluted in 0.1M acetic acid is added to an lodogen®-coated borosilicate glass tube pierce) containing 35 μL of 0.05M phosphate buffer (pH 7.4-7.6) and 1 mCi of Na[^125I]. The reaction mixture is vortexed and incubated for 1 minute at room temperature. After one minute, the mixture is vortexed again and allowed to incubate for an additional minute. Two mL of 0.5M acetic acid/1% BSA is added to the reaction tube, and the mixture is added to a C18 Sep-Pak cartridge. The cartridge is washed with subsequent washes of 5 mL H2O and 5 mL 0.5M acetic acid, and then eluted with 5×1 mL of 60% CH3CN/40% 0.5M acetic acid. The eluant is diluted with 3×volume of HPLC buffer A (0.1% TFA in H2O) and loaded onto a C18 column. The iodinated product is eluted over 20-25 minutes with a gradient of 25-100% CH3CN containing 0.1% TFA. The radioactive fractions (750 μL/fraction) are collected into clean polypropylene tubes containing 10 μL of 10% BSA. Fractions are assessed for biological activity by radioligand binding. Active fractions are utilized to screen the compounds for competitive binding assays.
HEK 293 cell membranes stably expressing hGnRHR (human GnRH receptors) are diluted to 0.5-1.0 mg/mL with assay buffer containing 50 mM HEPES (pH 7.4), 1 mM ethylenediarninetetraacetic acid (EDTA), 2.5 mM MgCl2, and 0.1% BSA. […]

[1] = average of 1st and 2nd test, read-out: Average % Remaining (percent of specific binding remaining)
[2] = crude compounds, 125I-GnRH-A, lower value = higher inhibition, read-out: % Remaining 1st Test (percent of specific binding remaining)
[3] = crude compounds, 125I-GnRH-A, lower value = higher inhibition, read-out: % Remaining 2nd Test (percent of specific binding remaining)

Compound | remaining activity at 10 µM [1] [%] | remaining activity at 10 µM [2] [%] | remaining activity at 10 µM [3] [%]
CC(C)(C)c1ccc(CN(CCCCNC(=N)N)C(=O)c2cccc3ccccc23)cc1 [Compound 23] | 49 | 48 | 50
CC(C)(C)c1ccc(CN(CCCCNC(=N)N)C(=O)c2ccc3ccccc3c2)cc1 [Compound 24] | 56 | 58 | 58
N=C(N)NCCCCN(CC12CC=CCC1C1CC=CCC1O2)C(=O)c1cccc2ccccc12 (stereo not drawn) [Compound 25] | 46 | 41 | 51
Cc1cc2c(cc1CN(CCCCNC(=N)N)C(=O)c1ccco1)C(C)(C)CCC2(C)C [Compound 30] | 33 | 29 | 37
Cc1cc2c(cc1CN(CCCCNC(=N)N)C(=O)c1ccccc1)C(C)(C)CCC2(C)C [Compound 31] | 45 | 44 | 45
N=C(N)NCCCCN(Cc1ccc(OCc2ccccc2)c(OCc2ccccc2)c1)C(=O)C1CCCCC1 [Compound 33] | 59 | 52 | 65
N=C(N)NCCCCN(Cc1ccc(OCc2ccccc2)c(OCc2ccccc2)c1)C(=O)c1cccc2ccccc12 [Compound 34] | 51 | 45 | 57
Cc1cc2c(cc1CN(Cc1cccc(CNC(=N)N)c1)C(=O)c1ccco1)C(C)(C)CCC2(C)C [Compound 40] | 12 | 12 | 11
CC(C)(C)c1ccc(CN(CC2CCCC(CNC(=N)N)C2)C(=O)c2cccc3ccccc23)cc1 (stereo not drawn) [Compound 41] | 45 | 46 | 43
CC(C)(C)c1ccc(CN(CC2CCCC(CNC(=N)N)C2)C(=O)c2ccc3ccccc3c2)cc1 (stereo not drawn) [Compound 42] | 58 | 54 | 62
N=C(N)NCC1CCCC(CN(CC23CC=CCC2C2CC=CCC2O3)C(=O)c2cccc3ccccc23)C1 (stereo not drawn) [Compound 47] | 42 | 39 | 44
N=C(N)NCC1CCCC(CN(CC23CC=CCC2C2CC=CCC2O3)C(=O)c2ccc3ccccc3c2)C1 (stereo not drawn) [Compound 48] | 44 | 48 | 40
N=C(N)NCC1CCCC(CN(CC23CC=CCC2C2CC=CCC2O3)C(=O)c2ccc(Cl)nc2)C1 (stereo not drawn) [Compound 49] | 58 | 53 | 62
N=C(N)NCC1CCCC(CN(Cc2cnc3ccccc3c2)C(=O)c2cccc3ccccc23)C1 (stereo not drawn) [Compound 50] | 55 | 47 | 62
N=C(N)NCC1CCCC(CN(Cc2cnc3ccccc3c2)C(=O)c2ccc3ccccc3c2)C1 (stereo not drawn) [Compound 51] | 56 | 48 | 63
Cc1cc2c(cc1CN(CC1CCCC(CNC(=N)N)C1)C(=O)C1CCCCC1)C(C)(C)CCC2(C)C (stereo not drawn) [Compound 52] | 58 | 57 | 59
Cc1cc2c(cc1CN(CC1CCCC(CNC(=N)N)C1)C(=O)c1cccc3ccccc13)C(C)(C)CCC2(C)C (stereo not drawn) [Compound 53] | 51 | 46 | 55

Next, values leading:

remaining activity at 10 µM [1] [%] | remaining activity at 10 µM [2] [%] | remaining activity at 10 µM [3] [%] | Compound
36 | 35 | 37 | N=C(N)NCCCCN(CC12CC=CCC1C1CC=CCC1O2)C(=O)c1ccc2ccccc2c1 (stereo not drawn) [Compound 26]
59 | 56 | 62 | Cc1cc2c(cc1CN(CCCCNC(=N)N)C(=O)C1CCCCC1)C(C)(C)CCC2(C)C [Compound 27]
52 | 46 | 57 | Cc1cc2c(cc1CN(CCCCNC(=N)N)C(=O)c1cccc3ccccc13)C(C)(C)CCC2(C)C [Compound 28]
57 | 53 | 61 | Cc1cc2c(cc1CN(CCCCNC(=N)N)C(=O)c1ccc3ccccc3c1)C(C)(C)CCC2(C)C [Compound 29]
57 | 52 | 61 | Cc1cc2c(cc1CN(CCCCNC(=N)N)C(=O)c1ccc(Cl)nc1)C(C)(C)CCC2(C)C [Compound 32]
52 | 50 | 54 | CC(=O)N(CCCCNC(=N)N)Cc1ccc(OCc2ccccc2)c(OCc2ccccc2)c1 [Compound 35]
58 | 56 | 59 | CN(C)CCCOc1ccc(CN(Cc2cccc(CNC(=N)N)c2)C(=O)c2ccc3ccccc3c2)cc1 [Compound 36]
60 | 59 | 61 | N=C(N)NCc1cccc(CN(CC23CC=CCC2C2CC=CCC2O3)C(=O)C2CCCCC2)c1 (stereo not drawn) [Compound 37]
57 | 59 | 55 | N=C(N)NCc1cccc(CN(CC23CC=CCC2C2CC=CCC2O3)C(=O)c2cccc3ccccc23)c1 (stereo not drawn) [Compound 38]
46 | 46 | 45 | N=C(N)NCc1cccc(CN(CC23CC=CCC2C2CC=CCC2O3)C(=O)c2ccc3ccccc3c2)c1 (stereo not drawn) [Compound 39]
50 | 47 | 53 | CC(C)(C)c1ccc(CN(CC2CCCC(CNC(=N)N)C2)C(=O)c2cccs2)cc1 (stereo not drawn) [Compound 43]
60 | 58 | 62 | CC(C)(C)c1ccc(CN(CC2CCCC(CNC(=N)N)C2)C(=O)c2ccccc2)cc1 (stereo not drawn) [Compound 44]
49 | 45 | 52 | CN(C)CCCOc1ccc(CN(CC2CCCC(CNC(=N)N)C2)C(=O)c2ccc3ccccc3c2)cc1 (stereo not drawn) [Compound 46]
54 | 49 | 59 | Cc1cc2c(cc1CN(CC1CCCC(CNC(=N)N)C1)C(=O)c1ccc3ccccc3c1)C(C)(C)CCC2(C)C (stereo not drawn) [Compound 54]
